Reference: patent US20260259195A1, “REAL-TIME TRACKING OF APOPTOSIS” (FUNDACIÓ INSTITUT DE BIOENGINYERIA DE CATALUNYA (IBEC), priority 2022, published 2026)
“Also recorded” adds a separate entry of the source. Read-outs that look alike come from different tables or passages of the source.

Legend:
GIST-T1 cell line [1] = conditions: 16 h drug pre-treatment; for Percentage of TMRE positive cells, dose-response curve versus control: titration of combination A, 3 hours
GIST-T1/670 cell line [2] = experiment: RTA with fluorescence microscopy (TMRE); type: cell-based; conditions: 16 h drug pre-treatment; titration of combination A, 3 hours
GIST-T1/670 cell line [3] = experiment: Real-time tracking of apoptosis (RTA) with flow cytometry; type: cell-based; conditions: 16 h drug pre-treatment; titration of combination A, 3 hours
GIST-T1 cells = conditions: 16 h drug pre-treatment; combination A gradient generated by the device
GIST-T1 cell line [4] = experiment: Real-time tracking of apoptosis (RTA) with flow cytometry; type: cell-based; conditions: 16 h drug pre-treatment; titration of combination A, 3 hours
GIST-T1/670 cell line [5] = conditions: 16 h drug pre-treatment (imatinib 1000 nM, gefitinib 1000 nM); BIM peptide titration with digitonin
GIST-T1 cell line [6] = conditions: 16 h drug pre-treatment (imatinib 1000 nM, gefitinib 1000 nM); BIM peptide titration with digitonin

SMILES | Δ% priming (GIST-T1 cell line [1]; microscopy RTA with combination A) | Percentage of TMRE positive cells, dose-response curve versus control (GIST-T1 cell line [1]) | Percentage of TMRE positive cells, dose-response curve versus control (GIST-T1/670 cell line [2]) | Percentage of cytochrome c retained, dose-response curve versus control (GIST-T1/670 cell line [3]) | Percentage of TMRE positive cells, dose-response curve versus control (GIST-T1 cells) | Percentage of cytochrome c retained, dose-response curve versus control (GIST-T1 cell line [4]) | Percentage of cytochrome c retained, dose-response curve versus control (GIST-T1/670 cell line [5]) | Percentage of cytochrome c retained, dose-response curve versus control (GIST-T1 cell line [6])
Cc1ccc(NC(=O)c2ccc(CN3CCN(C)CC3)cc2)cc1Nc1nccc(-c2cccnc2)n1 [imatinib] | a clear increase in apoptotic priming; also recorded: increase of apoptotic priming | caused a shift of the curve identifying an increase in apoptotic priming; also recorded: induction of apoptotic priming | produced an unaltered curve | – | – | – | – | –
COc1cc2ncnc(Nc3ccc(F)c(Cl)c3)c2cc1OCCCN1CCOCC1 [gefitinib] | – | this was not observed | produced an unaltered curve | produced the same curve as the control conditions | the same response | produced the same curve as the control conditions | the same dose-response curve | showed a similar profile as the control
